From ChEMBL document CHEMBL5543125, “Discovery of 2,3-Dihydro[1,4]dioxino[2,3-g]benzofuran Derivatives as Protease Activated Receptor 4 (PAR4) Antagonists with Potent Antiplatelet Aggregation Activity and Low Bleeding Tendency” (J Med Chem, 2024)
The source made the active and inactive calls. No cut-off for these calls is given here.

Legend:
Plasma [1] = experiment: Ex vivo antiplatelet aggregation activity in ICR mouse […] assessed as inhibition of ADP induced platelet aggregation at 6 mg/kg, po measured after 2 hrs by light transmission aggregometry; assay type: functional, organism-based
Plasma [2] = experiment: Ex vivo antiplatelet aggregation activity in ICR mouse […] assessed as inhibition of PAR4-activated peptide AYPGFK-NH2 induced platelet aggregation at 6 mg/kg, po measured after 2 hrs by light transmission aggregometry; assay type: functional, organism-based
[3] = Metabolic stability in human liver microsomes assessed as half life at 1 uM preincubated for 1 hr followed by NADPH addition and measured upto 60 mins by LC-MS/MS analysis; assay type: ADME, Microsome; conditions: time < 120 min
Platelet [4] = experiment: Inhibition of platelet aggregation in human platelet rich plasma preincubated for 5 mins followed by aggregation inducer addition and measured after 5 mins by light transmission aggregometry; assay type: functional, cell-based
Platelet [5] = experiment: Inhibition of platelet aggregation in human platelet rich plasma at 20 uM preincubated for 5 mins followed by aggregation inducer addition and measured after 5 mins by light transmission aggregometry relative to control; assay type: functional; conditions: 10 min
[6] = target: T1, Proteinase-activated receptor 4 (Mus musculus) (UniProt O88634); experiment: Antagonist activity at PAR4 in ICR mouse plasma assessed as inhibition of PAR4-activated peptide AYPGPK-NH2 induced platelet aggregation at 100 to 1000 nM preincubated for 5 mins followed by aggregation inducer addition and measured after 5 mins by light transmission aggregometry; assay type: cell-free; conditions: filed as antagonist, dose 100-1000 nM, time 10.0 min
T1 sequence (whole entry): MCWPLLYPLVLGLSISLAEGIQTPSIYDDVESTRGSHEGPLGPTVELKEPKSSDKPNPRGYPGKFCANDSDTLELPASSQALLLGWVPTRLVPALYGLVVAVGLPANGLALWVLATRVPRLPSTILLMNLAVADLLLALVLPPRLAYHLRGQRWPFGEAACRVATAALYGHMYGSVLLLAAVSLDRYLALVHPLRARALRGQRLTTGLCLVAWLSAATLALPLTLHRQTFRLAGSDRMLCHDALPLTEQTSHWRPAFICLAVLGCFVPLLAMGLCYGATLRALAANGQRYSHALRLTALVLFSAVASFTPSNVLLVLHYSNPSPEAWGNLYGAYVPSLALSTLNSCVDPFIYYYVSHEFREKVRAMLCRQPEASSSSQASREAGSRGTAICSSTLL

Platelet [7] = experiment: Antiplatelet aggregation activity in ICR mouse plasma assessed as inhibition of thrombin induced platelet aggregation upto 1 uM preincubated for 5 mins followed by aggregation inducer addition and measured after 5 mins by light transmission aggregometry; assay type: functional, cell-based; conditions: time 10.0 min
[8] = target: T2, Platelet glycoprotein VI (Mus musculus) (UniProt P0C191); experiment: Antagonist activity at GPVI in ICR mouse plasma assessed as inhibition of collagen induced platelet aggregation upto 1 uM preincubated for 5 mins followed by aggregation inducer addition and measured after 5 mins by light transmission aggregometry; assay type: cell-free; conditions: time 10.0 min
T2 sequence (whole entry): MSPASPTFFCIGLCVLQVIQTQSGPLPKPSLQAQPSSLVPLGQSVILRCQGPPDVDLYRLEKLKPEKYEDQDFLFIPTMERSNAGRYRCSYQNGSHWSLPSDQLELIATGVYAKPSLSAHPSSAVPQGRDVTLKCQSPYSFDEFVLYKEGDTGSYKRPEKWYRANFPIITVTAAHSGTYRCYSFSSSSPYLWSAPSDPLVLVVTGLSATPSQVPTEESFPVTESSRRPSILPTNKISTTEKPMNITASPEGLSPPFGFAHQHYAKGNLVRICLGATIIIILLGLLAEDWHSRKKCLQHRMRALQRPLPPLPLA

Platelet [9] = experiment: Antagonist activity at P2Y1/P2Y12 in ICR mouse plasma assessed as inhibition of ADP induced platelet aggregation upto 1 uM preincubated for 5 mins followed by aggregation inducer addition and measured after 5 mins by light transmission aggregometry; assay type: cell-free; conditions: time 10.0 min
[10] = target: T3, Thromboxane A2 receptor (Mus musculus) (UniProt P30987); experiment: Antagonist activity at thromboxane A2 receptor in ICR mouse plasma assessed as inhibition of U46619 induced platelet aggregation upto 1 uM preincubated for 5 mins followed by aggregation inducer addition and measured after 5 mins by light transmission aggregometry; assay type: functional, cell-free; conditions: time 10.0 min
T3 sequence (whole entry): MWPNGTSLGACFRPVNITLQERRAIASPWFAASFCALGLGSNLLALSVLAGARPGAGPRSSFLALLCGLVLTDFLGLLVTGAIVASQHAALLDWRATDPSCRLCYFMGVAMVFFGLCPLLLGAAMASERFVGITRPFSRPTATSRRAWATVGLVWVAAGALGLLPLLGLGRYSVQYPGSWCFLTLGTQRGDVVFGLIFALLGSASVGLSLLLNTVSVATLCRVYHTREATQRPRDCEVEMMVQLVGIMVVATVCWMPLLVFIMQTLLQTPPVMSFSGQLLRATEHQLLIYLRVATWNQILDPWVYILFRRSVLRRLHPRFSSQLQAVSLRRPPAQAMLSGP

Platelet [11] = experiment: Antiplatelet aggregation activity in ICR mouse plasma assessed as inhibition of thrombin induced platelet aggregation upto 8 uM preincubated for 5 mins followed by aggregation inducer addition and measured after 5 mins by light transmission aggregometry; assay type: functional, cell-based; conditions: time 10.0 min
[12] = target: T2, Platelet glycoprotein VI (Mus musculus); experiment: Antagonist activity at GPVI in ICR mouse plasma assessed as inhibition of collagen induced platelet aggregation upto 8 uM preincubated for 5 mins followed by aggregation inducer addition and measured after 5 mins by light transmission aggregometry; assay type: cell-free; conditions: time 10.0 min
Platelet [13] = experiment: Antagonist activity at P2Y1/P2Y12 in ICR mouse plasma assessed as inhibition of ADP induced platelet aggregation upto 8 uM preincubated for 5 mins followed by aggregation inducer addition and measured after 5 mins by light transmission aggregometry; assay type: cell-free; conditions: time 10.0 min
[14] = target: T3, Thromboxane A2 receptor (Mus musculus); experiment: Antagonist activity at thromboxane A2 receptor in ICR mouse plasma assessed as inhibition of U46619 induced platelet aggregation upto 8 uM preincubated for 5 mins followed by aggregation inducer addition and measured after 5 mins by light transmission aggregometry; assay type: functional, cell-free; conditions: time 10.0 min
Plasma [15] = experiment: Anticoagulation activity in ICR mouse platelet poor plasma assessed as elongation of aPTT upto 20 uM incubated for 3 mins; assay type: functional, cell-free
Plasma [16] = experiment: Anticoagulation activity in ICR mouse platelet poor plasma assessed as elongation of prothrombin time upto 20 uM incubated for 3 mins; assay type: functional, cell-free
[17] = Terminal elimination half life in ICR mouse at 2 mg/kg, iv measured upto 24 hrs by LC-MS/MS analysis; assay type: ADME, organism-based; conditions: in vivo, read-out: beta t1/2 (converted)
[18] = AUC (0 to t) in ICR mouse at 2 mg/kg, iv measured upto 24 hrs by LC-MS/MS analysis; assay type: ADME, organism-based; conditions: in vivo
[19] = Clearance in ICR mouse at 2 mg/kg, iv measured upto 24 hrs by LC-MS/MS analysis; assay type: ADME, organism-based; conditions: in vivo
[20] = Terminal elimination half life in ICR mouse at 12 mg/kg, po measured upto 24 hrs by LC-MS/MS analysis; assay type: ADME, organism-based; conditions: in vivo, read-out: beta t1/2 (converted)
[21] = Tmax in ICR mouse at 12 mg/kg, po measured upto 24 hrs by LC-MS/MS analysis; assay type: ADME, organism-based; conditions: in vivo
[22] = Cmax in ICR mouse at 12 mg/kg, po measured upto 24 hrs by LC-MS/MS analysis; assay type: ADME, organism-based; conditions: in vivo
[23] = AUC (0 to t) in ICR mouse at 12 mg/kg, po measured upto 24 hrs by LC-MS/MS analysis; assay type: ADME, organism-based; conditions: in vivo
[24] = Oral bioavailability in ICR mouse at 12 mg/kg measured upto 24 hrs by LC-MS/MS analysis; assay type: ADME, organism-based; conditions: in vivo
[25] = target: Voltage-gated inwardly rectifying potassium channel KCNH2 (Homo sapiens, UniProt Q12809); experiment: Inhibition of hERG expressed in HEK293 cells by whole cell patch clamp assay; assay type: toxicity, cell-based
Chain of Voltage-gated inwardly rectifying potassium channel KCNH2 (Q12809 whole entry): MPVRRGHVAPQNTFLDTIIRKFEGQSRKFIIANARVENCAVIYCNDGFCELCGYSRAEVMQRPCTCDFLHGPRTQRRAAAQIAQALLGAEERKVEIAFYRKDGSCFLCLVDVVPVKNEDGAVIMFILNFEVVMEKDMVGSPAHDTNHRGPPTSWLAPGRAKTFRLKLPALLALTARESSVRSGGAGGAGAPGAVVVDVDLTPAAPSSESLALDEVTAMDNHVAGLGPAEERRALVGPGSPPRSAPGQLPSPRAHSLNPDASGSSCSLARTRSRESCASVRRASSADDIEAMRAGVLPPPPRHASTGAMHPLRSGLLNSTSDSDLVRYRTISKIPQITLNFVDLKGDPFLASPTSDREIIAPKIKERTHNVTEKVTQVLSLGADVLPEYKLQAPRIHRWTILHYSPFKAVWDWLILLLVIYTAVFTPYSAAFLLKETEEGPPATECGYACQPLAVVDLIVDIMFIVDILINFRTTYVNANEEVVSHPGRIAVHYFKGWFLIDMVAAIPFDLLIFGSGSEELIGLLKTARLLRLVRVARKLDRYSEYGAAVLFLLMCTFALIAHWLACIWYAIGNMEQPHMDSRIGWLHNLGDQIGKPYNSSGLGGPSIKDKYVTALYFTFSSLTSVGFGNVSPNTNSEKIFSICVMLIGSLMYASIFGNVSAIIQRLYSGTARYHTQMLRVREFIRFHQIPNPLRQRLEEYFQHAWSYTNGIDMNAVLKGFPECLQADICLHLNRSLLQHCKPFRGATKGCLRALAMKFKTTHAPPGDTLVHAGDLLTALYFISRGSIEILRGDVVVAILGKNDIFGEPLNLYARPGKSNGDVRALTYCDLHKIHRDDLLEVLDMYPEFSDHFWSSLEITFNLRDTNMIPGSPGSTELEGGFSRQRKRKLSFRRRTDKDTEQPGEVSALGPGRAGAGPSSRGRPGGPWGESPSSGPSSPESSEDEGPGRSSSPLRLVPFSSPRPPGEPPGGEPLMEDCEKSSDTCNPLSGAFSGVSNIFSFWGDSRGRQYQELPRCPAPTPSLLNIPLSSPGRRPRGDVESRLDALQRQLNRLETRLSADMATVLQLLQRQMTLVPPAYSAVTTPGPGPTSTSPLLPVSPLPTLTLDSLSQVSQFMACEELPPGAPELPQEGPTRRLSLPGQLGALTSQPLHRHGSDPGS

Plasma [26] = experiment: Ex vivo antiplatelet aggregation activity in po dosed ICR mouse […] assessed as inhibition of ADP induced platelet aggregation measured after 2 hrs by light transmission aggregometry; assay type: functional, organism-based; conditions: dose 1-12 mg/kg
Plasma [27] = experiment: Ex vivo antiplatelet aggregation activity in po dosed ICR mouse […] assessed as inhibition of PAR4-activated peptide AYPGFK-NH2 induced platelet aggregation measured after 2 hrs by light transmission aggregometry; assay type: functional, organism-based; conditions: dose 1-12 mg/kg
Plasma [28] = experiment: Ex vivo antiplatelet aggregation activity in ICR mouse […] assessed as inhibition of ADP induced platelet aggregation at 6 to 12 mg/kg, po measured after 2 hrs by light transmission aggregometry relative to control; assay type: functional; conditions: dose 6-12 mg/kg
Plasma [29] = experiment: Ex vivo antiplatelet aggregation activity in ICR mouse […] assessed as inhibition of PAR4-activated peptide AYPGFK-NH2 induced platelet aggregation at 6 to 12 mg/kg, po measured after 2 hrs by light transmission aggregometry relative to control; assay type: functional; conditions: dose 6-12 mg/kg
[30] = Toxicity in C57BL/6J mouse assessed as prolongation of bleeding time at 3 to 12 mg/kg, po administered via oral gavage and measured after 2 hrs; assay type: organism-based; conditions: in vivo, dose 3-12 mg/kg
[31] = target: T1, Proteinase-activated receptor 4 (Mus musculus); experiment: Antagonist activity at PAR4 in ICR mouse plasma assessed as inhibition of PAR4-activated peptide AYPGPK-NH2 induced platelet aggregation at 200 to 1000 nM preincubated for 5 mins followed by aggregation inducer addition and measured after 5 mins by light transmission aggregometry; assay type: cell-free; conditions: filed as antagonist, dose 200-1000 nM, time 10.0 min
[32] = target: T4, Platelet glycoprotein VI (Homo sapiens) (UniProt Q9HCN6); experiment: Antagonist activity at GPVI in human platelet rich plasma assessed as inhibition of collagen induced platelet aggregation at >=4 uM preincubated for 5 mins followed by aggregation inducer addition and measured after 5 mins by light transmission aggregometry; assay type: cell-free; conditions: filed as antagonist, time 10.0 min
T4 sequence (whole entry): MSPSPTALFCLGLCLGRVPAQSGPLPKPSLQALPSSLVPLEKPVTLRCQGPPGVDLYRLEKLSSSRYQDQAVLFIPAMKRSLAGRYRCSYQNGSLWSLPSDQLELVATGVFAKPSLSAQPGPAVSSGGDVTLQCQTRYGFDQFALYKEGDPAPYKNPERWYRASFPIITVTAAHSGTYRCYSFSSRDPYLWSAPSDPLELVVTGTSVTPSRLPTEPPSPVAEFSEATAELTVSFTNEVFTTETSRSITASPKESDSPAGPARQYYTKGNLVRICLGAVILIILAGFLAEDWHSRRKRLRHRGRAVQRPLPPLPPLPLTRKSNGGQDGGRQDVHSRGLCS

SMILES | half-life at 1 µM [3] [h] | IC50 (Platelet [4]) [nM] | inhibition at 20 µM (Platelet [5]) [%] | Activity (Platelet [7]) | Activity [8] | Activity (Platelet [9]) | Activity [10] | Activity (Plasma [15]) | Activity (Plasma [16]) | half-life [17] [h] | AUC(0-t) at 24 h [18] [ng·h/mL] | clearance [19] [mL/min/kg] | half-life [20] [h] | Tmax [21] [h] | Cmax [22] [ng/mL] | AUC(0-t) at 24 h [23] [ng·h/mL] | bioavailability [24] [%] | IC50 [25] [nM] | Activity (Plasma [26]) | Activity (Plasma [27]) | also measured
COc1nn2cc(-c3cc4ccccc4o3)nc2s1 | – | – | – | – | – | – | – | – | – | – | – | – | – | – | – | – | – | – | – | – | Activity (Plasma [1]): inactive; Activity (Plasma [2]): inactive
COc1nn2cc(-c3cc4ccc5c(c4o3)OCC(COc3ccc(F)cc3)O5)nc2s1 (stereo not given) | 0.708 | 14.2 | 87.2 | inactive | inactive | inactive | inactive | inactive | inactive | 38.3 | 5390 | 3 | 29.5 | 2 | 204 | 3040 | 9.61 | > 30000 | Dose-Dependent Effect | Dose-Dependent Effect | Activity [6]: Active; Activity (Platelet [11]): inactive; Activity [12]: inactive; Activity (Platelet [13]): inactive; Activity [14]: inactive; inhibition (INH) (Plasma [28]): >90%; inhibition (INH) (Plasma [29]): >90%; Activity [30]: Non-Toxic
COc1nn2cc(-c3cc4ccc5c(c4o3)OC(COc3ccc(F)cc3)CO5)nc2s1 (stereo not given) | 1.63 | 26.1 | 85.9 | inactive | inactive | inactive | inactive | inactive | inactive | 11.3 | 1250 | 23.8 | 7.32 | 1.67 | 325 | 3460 | 45.1 | 21600 | Dose-Dependent Effect | Dose-Dependent Effect | Activity [31]: Active; Activity [32]: Active; inhibition (INH) (Plasma [28]): >90%; inhibition (INH) (Plasma [29]): >90%; Activity [30]: Non-Toxic
